The conditions of data set [1]: unformulated CAP; cited from earlier work.
Data set [2] in a line: Particle size by dynamic light scattering (DLS).

Take `CCCCCOC(=O)Nc1nc(=O)n([C@@H]2O[C@H](C)[C@@H](O)[C@H]2O)cc1F` [CAP, N4-pentyloxycarbonyl-5-deoxy-5-fluoro-cytidine]: the “Time within which the drug by itself is eliminated from the body” value in data set [1] was 0.5 to 1 h. In data set [2] (CAP in DI water, DLS), the “Size of the particles formed by CAP” value is recorded as 2-30 nm. The “Stability of CAP micelles” value in data set [2] (high concentrations of CAP in DI water, size and correlation function fluctuate) was “not very stable”.

(Values after patent US20190091162A1, “POLYMER-LIPID HYBRID NANOPARTICLES OF CAPECITABINE UTILIZING MICROMIXING AND CAPECITABINE AMPHIPHILIC PROPERTIES” (Jingjie PTM BioLab (Hangzhou) Co., Ltd., priority 2017, published 2019).)
